Measurements published in patent publication US11292781B2, “Pyrimidine tricyclic enone derivatives for inhibition of ROR-gamma and other uses” (REATA PHARMACEUTICALS, INC., priority 2016, dated 2022).

Tests used:
[1] = tested on: Nrf2 transcription factor (GST ARE luciferase reporter in AREc32 cells); experiment: AREc32 luciferase reporter assay; assay type: cell-based, human; conditions: EC2×: concentration required to increase GST ARE luciferase reporter activity by 2-fold, 19 hours
Summary of the method: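 AREc32 cells (MCF-7 carrying luciferase under eight rat GSTA2 ARE copies) treated with compound; luciferase measured by ONE-Glo luminescence. Signal normalised to DMSO wells as fold-induction, fitted by variable-slope log(agonist)-response regression, with EC2× interpolated from the curve.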

[2] = tested on: Human RAR-related Orphan Receptor Gamma (RORγ); experiment: RORγ assay (GAL4-RORγ hybrid luciferase reporter, Indigo Biosciences); assay type: cell-based; conditions: GAL4-RORγ reporter cells, 23 hours
Text: B. RORγ Assay and Cell Viability
The RORγ assay system was purchased from Indigo Biosciences. This nuclear receptor assay utilizes a human cell line that has been engineered to express a hybrid form of the Human RAR-related Orphan Receptor Gamma (RORγ) at high levels. The N-terminal DNA binding domain (DBD) of the native RORγ receptor was substituted with the yeast GAL4-DBD to generate the GAL4-RORγ hybrid nuclear receptor. The reporter cell line is transfected with a plasmid that encodes the beetle luciferase gene under the control of the GAL4 upstream activating sequence (UAS). GAL4 binds to the UAS and increases transcription of downstream target genes. […] To assess the RORγ inverse-agonist activity of the test compounds, reporter cells were plated in white 96-well plates in triplicate and were treated with DMSO (vehicle) or test compound (concentration ranges of 0.4-200 nM or 2-1000 nM) at 37° C. with 5% CO2 in a humidified atmosphere for 23 hours. After this incubation, luciferin was added to the wells and luciferase activity was determined by measuring the luminescence signal using a BMG Pherastar microplate reader. Viability was determined using the Live Cell Multiplex Assay (Indigo Biosciences). Values from test compound samples were normalized to those from DMSO-treated samples. Data were analyzed using GraphPad Prism version 6.00 for Windows (GraphPad Software, La Jolla Calif. USA). A non-linear regression analysis with log (inhibitor) vs. normalized response using a variable slope was applied to fit the data and determine the IC50 values for inhibition of RORγ and cell viability.

[3] = tested on: IL-17A levels in primary human CD4+ T cells differentiated into Th17 cells; experiment: IL-17 release from differentiated primary human T-cells (IL-17A HTRF); assay type: cell-based; conditions: primary human CD4+ T cells, Th17 differentiation, 46-hour incubation; read-out: hIL17 IC50
Protocol: C. IL-17 Release from Differentiated Primary Human T-Cells and Cell Viability Primary human cryopreserved CD4+ T Cells (Lonza, donor #0000402103) were plated in Lymphocyte Growth Medium-3 (LGM-3, Lonza) according to the manufacturer's recommendations, and allowed to recover for approximately 3 hours at 37° C. with 5% CO2 in a humidified atmosphere. […] Triplicate wells were plated for each test condition. DMSO (final concentration ≤0.1%) was used as the vehicle. Immediately after plating, CD4+ T cells were activated by adding Dynabeads Human T-Activator CD3/CD28 (Life Technologies; bead-to-cell ratio of 1:2.5) and differentiated into Th17 cells by adding a mixture of the following cytokines: transforming growth factor-β (TGF-β, 5 ng/mL), IL-6 (20 ng/mL), IL-23 (20 ng/mL), and […] (10 ng/mL). Undifferentiated control cells received only cytokine IL-2 (50 ng/mL). All human recombinant cytokines were purchased from R&D Systems. Following a 46-hour incubation at 37° C. with 5% CO2 in a humidified atmosphere, the plates were centrifuged for 3 minutes at 250×g, and half of the supernatant was transferred to a new plate to be used in the IL-17A assay (see below). Cell viability was assessed in the original plate using the CyQuant Direct Assay (Life Technologies). CyQuant values from test compound samples were normalized to those from DMSO-treated samples. The concentration of IL-17A in the supernatant was measured using the Homogeneous Time-Resolved Fluorescence (HTRF) assay (Cisbio Bioassays) according to the manufacturer's protocol. The assay was performed at room temperature in low volume, solid white 384-well plates (Greiner Bio-One). […] A non-linear regression analysis with log (inhibitor) vs. normalized response using a variable slope was applied to fit the data and determine the IC50 values for inhibition of IL-17A levels and cell viability.

IC50 [2] [nM] | IC50 [3] [nM] | SMILES | HRF2 ARE 2× [1] [nM]
> 2000 | – | COc1nc(CCNC=O)nc2c1CC[C@@H]1[C@@H](C)C(=O)C(C#N)=C[C@@]21C [T11] | 2438
– | 72 | C[C@H]1C(=O)C(C#N)=C[C@@]2(C)c3nc(-c4ccnc(CCS(C)(=O)=O)c4)nc(-c4ccccc4F)c3CC[C@H]12 [T144] | 299
> 2000 | – | Cc1cc(-c2nc(-c3ccc(F)cc3)c3c(n2)[C@]2(C)CC(C(N)=O)C(=O)[C@H](C)[C@H]2CC3)ccn1 (some centres unmarked) [T185] | >2000
– | 36 | C[C@H]1C(=O)C(C#N)=C[C@@]2(C)c3nc(-c4cccc5ncccc45)nc(-c4ccccc4F)c3CC[C@H]12 [T84] | 321
– | 329 | C[C@@H]1C(=O)C(C#N)=C[C@@]2(C)c3nc(-c4ccnc5ccccc45)nc(-c4ccccc4F)c3CC[C@@H]12 [T175] | >2000
– | 94 | C[C@H]1C(=O)C(C#N)=C[C@@]2(C)c3nc(-c4ccnc(CS(C)(=O)=O)c4)nc(-c4ccccc4F)c3CC[C@H]12 [T143] | 538
– | 40 | COc1cc(-c2nc(-c3ccccc3)c3c(n2)[C@]2(C)C=C(C#N)C(=O)[C@H](C)[C@H]2CC3)ccn1 [T33] | 480
– | 64 | CC(C)Oc1nc(-c2ccnc3ccccc23)nc2c1CC[C@@H]1[C@@H](C)C(=O)C(C#N)=C[C@@]21C [T41] | 528
– | 65 | CC(C)CC[C@@]12C=C(C#N)C(=O)C[C@H]1CCc1c(-c3ccccc3F)nc(-c3ccnc(CF)c3)nc12 [T165] | 863
– | 85 | C[C@H]1C(=O)C(C#N)=C[C@@]2(C)c3nc(-c4ncnc5ccccc45)nc(OC4CCC4)c3CC[C@H]12 [T112] | 559
– | 77 | C[C@H]1C(=O)C(C#N)=C[C@@]2(C)c3nc(-c4ccc(CCS(C)(=O)=O)nc4)nc(-c4ccccc4F)c3CC[C@H]12 [T142] | 217
– | 54 | CCOC(=O)CCc1cc(-c2nc(-c3ccccc3F)c3c(n2)[C@]2(C)C=C(C#N)C(=O)[C@H](C)[C@H]2CC3)ccn1 [T151] | 1111
– | 101 | C[C@H]1C(=O)C(C#N)=C[C@@]2(C)c3nc(-c4ccnc5ccccc45)nc(C4CC4)c3CC[C@H]12 [T93] | 283
– | 455 | C[C@H]1C(=O)C(C#N)=C[C@@]2(C)c3nc(-c4ccnc5ccccc45)nc(-c4ccccc4F)c3CC[C@@H]12 [T176] | >2000

The next lines start with the molecule.

SMILES | IC50 [2] [nM] | IC50 [3] [nM] | HRF2 ARE 2× [1] [nM]
C[C@H]1C(=O)C(C#N)=C[C@@]2(C)c3nc(-c4ccnc(CCC(=O)O)c4)nc(-c4ccccc4F)c3CC[C@H]12 [T150] | > 2000 | – | >2000
C[C@H]1C(=O)C(C#N)=C[C@@]2(C)c3nc(-c4ccncc4)nc(O)c3CC[C@H]12 [T17] | > 2000 | – | 839
C[C@H]1C(=O)C(C#N)=C[C@@]2(C)c3nc(-c4ccnc5ccccc45)nc(NS(C)(=O)=O)c3CC[C@H]12 [T98] | > 2000 | > 1000 | >2000
C[C@H]1C(=O)C(C#N)=C[C@@]2(C)c3nc(-c4ccnc5ccccc45)nc(-c4ccc(C(=O)N(C)Cc5ccccc5)cc4)c3CC[C@H]12 [T101] | – | 200 | 295
C[C@H]1C(=O)C(C#N)=C[C@@]2(C)c3nc(-c4ccnc5c(F)cc(F)cc45)nc(-c4ccccc4F)c3CC[C@H]12 [T90] | – | 37 | 301
CCS(=O)(=O)Cc1cc(-c2nc(-c3ccccc3F)c3c(n2)[C@]2(C)C=C(C#N)C(=O)[C@H](C)[C@H]2CC3)ccn1 [T154] | – | 65 | 469
C[C@H]1C(=O)C(C#N)=C[C@@]2(C)c3nc(-c4ccncc4F)nc(-c4ccccc4F)c3CC[C@H]12 [T57] | – | 77 | 419
C[C@H]1C(=O)C(C#N)=C[C@@]2(C)c3nc(-c4ccnc5ccccc45)nc(N(C)C)c3CC[C@H]12 [T99] | – | 189 | 508
Cc1cncc(-c2nc(-c3ccccc3F)c3c(n2)[C@]2(C)C=C(C#N)C(=O)[C@H](C)[C@H]2CC3)c1 [T58] | – | 69 | 155
CCS(=O)(=O)CCc1cc(-c2nc(-c3ccccc3F)c3c(n2)[C@]2(C)C=C(C#N)C(=O)[C@H](C)[C@H]2CC3)ccn1 [T153] | – | 52 | 282
Cc1ccc2nccc(-c3nc(-c4ccccc4F)c4c(n3)[C@]3(C)C=C(C#N)C(=O)[C@H](C)[C@H]3CC4)c2c1 [T73] | – | 69 | 407
C[C@H]1C(=O)[C@@]2(C#N)O[C@H]2[C@@]2(C)c3nc(-c4ccnc5ccccc45)nc(-c4ccccc4F)c3CC[C@H]12 [T132] | – | 74 | 437
C[C@H]1C(=O)C(C#N)=C[C@@]2(C)c3nc(-c4ccncc4C4CC4)nc(-c4ccccc4F)c3CC[C@H]12 [T180] | – | 21 | 494
C[C@H]1C(=O)C(C#N)=C[C@@]2(C)c3nc(C4=CCCN(C(=O)OC(C)(C)C)C4)nc(-c4ccccc4)c3CC[C@H]12 [T47] | – | 38 | 622
C[C@H]1C(=O)C(C#N)=C[C@@]2(C)c3nc(-c4ccnc(-c5ccccc5)c4)nc(-c4ccccc4F)c3CC[C@H]12 [T65] | – | 29 | 463
C[C@H]1C(=O)C(C#N)=C[C@@]2(C)c3nc(-c4ccnc5ccccc45)nc(-c4ccc(F)cc4)c3CC[C@H]12 [T40] | – | 63 | 273
Cc1cc(-c2nc(-c3ccccc3)c3c(n2)[C@]2(C)C=C(C#N)C(=O)[C@H](C)[C@H]2CC3)ccn1 [T43] | – | 39 | 278
Cc1cc(-c2nc(-c3ccccc3F)c3c(n2)[C@]2(C)C=C(C#N)C(=O)[C@H](C)[C@H]2CC3)c2ccccc2n1 [T69] | – | 20 | 227
COc1nc(Nc2ccncc2)nc2c1CC[C@@H]1[C@@H](C)C(=O)C(C#N)=C[C@@]21C [T8] | – | 185 | 534
C[C@H]1C(=O)C(C#N)=C[C@@]2(C)c3nc(-c4ccnc5c(F)cccc45)nc(OC4CCCC4)c3CC[C@H]12 [T121] | – | 36 | 390
C[C@H]1C(=O)C(C#N)=C[C@@]2(C)c3nc(-c4cccc5cccnc45)nc(-c4ccccc4F)c3CC[C@H]12 [T62] | – | 39 | 401
Cc1noc(C)c1-c1nc(-c2ccccc2F)c2c(n1)[C@]1(C)C=C(C#N)C(=O)[C@H](C)[C@H]1CC2 [T87] | – | 109 | 245
Cc1cccc2c(-c3nc(-c4ccccc4F)c4c(n3)[C@]3(C)C=C(C#N)C(=O)[C@H](C)[C@H]3CC4)ccnc12 [T68] | – | 31 | 253
C[C@H]1C(=O)C(C#N)=C[C@@]2(C)c3nc(-c4cc(CF)nc5ccccc45)nc(OC4CCCC4)c3CC[C@H]12 [T120] | – | 29 | 334
